These results are taken from US6117841A, “Substituted peptidylamine calcium channel blockers” (Warner-Lambert Company, priority 1999, dated 2000).

Each structure is given as a SMILES string. Read-outs that look alike come from different tables or passages of the source.

For the assay, the target named is T1, N-type Ca^2+ Channel (Homo sapiens, UniProt Q00975).
T1 construct: host or cells: IMR-32 cells differentiated with dibutyryl cAMP and bromodeoxyuridine
The assay is described as follows: Measurement of N-type Ca2+ channel blocking potencies in IMR-32 cells using the fluorescent Ca2+ indicator Indo-1. Type of assay: cell-based. The settings on record: for IC50: read-out: IMR 32 IC50. The method, then:
Measurement of N-type Ca^2+ Channel Blocking Potencies of Compounds in IMR-32 Cells Using the Fluorescent Ca^2 + Indicator Indo-1
IMR-32 cells are a human tumoral cell line of neural origin. […] Calcium flux into these cells may be induced by stimulation with elevated potassium concentrations. The L-channel component of calcium flux may be blocked by adding 5 μM nitrendipine. The remaining component of calcium entry into the IMR-32 cells is due to calcium flux through N-type calcium channels. Intracellular calcium concentrations are measured using the fluorescent calcium indicator Indo-1. The effect of drug concentration on calcium uptake is studied.
The IMR-32 cell line was obtained from the American Type Culture Collection (Rockville, Md.). Cells were grown in Eagle's Minimum Essential Medium with Earle's salts supplemented with 10% fetal bovine serum, 2 mM L-Gln and antibiotic/antimycotic mixture (Gibco). At approximately 80% confluency, differentiation was induced by the addition of 1 mM dibutyryl cAMP and 2.5 μM bromodeoxyuridine to the medium. After 7 to 13 days of differentiation, cells were detached using 0.5 mM EDTA and loaded with 5 μM Indo-1 acetoxymethyl ester (Molecular Probes, Eugene, Oreg.) at 30° C. for 45 minutes. Loaded cells were washed twice, resuspended (~10^7 cells/mL) in assay buffer (10 mM HEPES/Tris pH 7.4 in Hank's Balanced Salt Solution without bicarbonate or phenol red containing 0.5% bovine serum albumin) and kept on ice until use. Fluorescence measurements were carried out in a Photon Technology International (PTI, South Brunswick, N.J.) Model RF-F3004 spectrofluorometer with dual emission monochromators using excitation at 350 nm and emission at 400 and 490 nm. The instrument was equipped with a thermostated cuvette holder with stirring capabilities as well as with a computer-controlled pump which allowed for reagent addition during measurement. Instrument control and data collection was done by PTI's OSCAR software running on an IBM compatible computer. Different concentrations of the test compounds (60 μL in dimethyl sulfoxide) were added to 5.94 mL of assay buffer containing approximately 3×10^6 loaded cells, and 5 μM nitrendipine (in 30 μL EtOH) to block L-type Ca^2+ channels. Samples were incubated for 10 minutes at 30° C. and then aliquoted into three 10×10 mm disposable acrylic cuvettes. Emission signals at 400 and 490 nm were acquired from each cuvette at 30° C. for 50 seconds. At 20 seconds after the start of reading, cells were depolarized by the addition of 160 μL of stimulation solution (1 M KCl, 68 mM CaCl2) to the cuvette via the computer-controlled pump. Ratio of dual emission signals (400 nm/ 490 nm), which is proportional to intracellular Ca^2+ concentration, was plotted against time, and the difference between maximal response after stimulation and basal value (before stimulation) was determined. Values obtained in this way were plotted as a function of drug concentration. IC50 values of test compounds were calculated by fitting a four-parameter logistic function to the data using the least squares method.

The mark [1] stands for this setting: IMR-32 cells, K+ depolarization, 5 μM nitrendipine to block L-type channels.
[2] abbreviates: IMR-32 cells, 5 μM nitrendipine.

T1 sequence (Q00975 whole entry): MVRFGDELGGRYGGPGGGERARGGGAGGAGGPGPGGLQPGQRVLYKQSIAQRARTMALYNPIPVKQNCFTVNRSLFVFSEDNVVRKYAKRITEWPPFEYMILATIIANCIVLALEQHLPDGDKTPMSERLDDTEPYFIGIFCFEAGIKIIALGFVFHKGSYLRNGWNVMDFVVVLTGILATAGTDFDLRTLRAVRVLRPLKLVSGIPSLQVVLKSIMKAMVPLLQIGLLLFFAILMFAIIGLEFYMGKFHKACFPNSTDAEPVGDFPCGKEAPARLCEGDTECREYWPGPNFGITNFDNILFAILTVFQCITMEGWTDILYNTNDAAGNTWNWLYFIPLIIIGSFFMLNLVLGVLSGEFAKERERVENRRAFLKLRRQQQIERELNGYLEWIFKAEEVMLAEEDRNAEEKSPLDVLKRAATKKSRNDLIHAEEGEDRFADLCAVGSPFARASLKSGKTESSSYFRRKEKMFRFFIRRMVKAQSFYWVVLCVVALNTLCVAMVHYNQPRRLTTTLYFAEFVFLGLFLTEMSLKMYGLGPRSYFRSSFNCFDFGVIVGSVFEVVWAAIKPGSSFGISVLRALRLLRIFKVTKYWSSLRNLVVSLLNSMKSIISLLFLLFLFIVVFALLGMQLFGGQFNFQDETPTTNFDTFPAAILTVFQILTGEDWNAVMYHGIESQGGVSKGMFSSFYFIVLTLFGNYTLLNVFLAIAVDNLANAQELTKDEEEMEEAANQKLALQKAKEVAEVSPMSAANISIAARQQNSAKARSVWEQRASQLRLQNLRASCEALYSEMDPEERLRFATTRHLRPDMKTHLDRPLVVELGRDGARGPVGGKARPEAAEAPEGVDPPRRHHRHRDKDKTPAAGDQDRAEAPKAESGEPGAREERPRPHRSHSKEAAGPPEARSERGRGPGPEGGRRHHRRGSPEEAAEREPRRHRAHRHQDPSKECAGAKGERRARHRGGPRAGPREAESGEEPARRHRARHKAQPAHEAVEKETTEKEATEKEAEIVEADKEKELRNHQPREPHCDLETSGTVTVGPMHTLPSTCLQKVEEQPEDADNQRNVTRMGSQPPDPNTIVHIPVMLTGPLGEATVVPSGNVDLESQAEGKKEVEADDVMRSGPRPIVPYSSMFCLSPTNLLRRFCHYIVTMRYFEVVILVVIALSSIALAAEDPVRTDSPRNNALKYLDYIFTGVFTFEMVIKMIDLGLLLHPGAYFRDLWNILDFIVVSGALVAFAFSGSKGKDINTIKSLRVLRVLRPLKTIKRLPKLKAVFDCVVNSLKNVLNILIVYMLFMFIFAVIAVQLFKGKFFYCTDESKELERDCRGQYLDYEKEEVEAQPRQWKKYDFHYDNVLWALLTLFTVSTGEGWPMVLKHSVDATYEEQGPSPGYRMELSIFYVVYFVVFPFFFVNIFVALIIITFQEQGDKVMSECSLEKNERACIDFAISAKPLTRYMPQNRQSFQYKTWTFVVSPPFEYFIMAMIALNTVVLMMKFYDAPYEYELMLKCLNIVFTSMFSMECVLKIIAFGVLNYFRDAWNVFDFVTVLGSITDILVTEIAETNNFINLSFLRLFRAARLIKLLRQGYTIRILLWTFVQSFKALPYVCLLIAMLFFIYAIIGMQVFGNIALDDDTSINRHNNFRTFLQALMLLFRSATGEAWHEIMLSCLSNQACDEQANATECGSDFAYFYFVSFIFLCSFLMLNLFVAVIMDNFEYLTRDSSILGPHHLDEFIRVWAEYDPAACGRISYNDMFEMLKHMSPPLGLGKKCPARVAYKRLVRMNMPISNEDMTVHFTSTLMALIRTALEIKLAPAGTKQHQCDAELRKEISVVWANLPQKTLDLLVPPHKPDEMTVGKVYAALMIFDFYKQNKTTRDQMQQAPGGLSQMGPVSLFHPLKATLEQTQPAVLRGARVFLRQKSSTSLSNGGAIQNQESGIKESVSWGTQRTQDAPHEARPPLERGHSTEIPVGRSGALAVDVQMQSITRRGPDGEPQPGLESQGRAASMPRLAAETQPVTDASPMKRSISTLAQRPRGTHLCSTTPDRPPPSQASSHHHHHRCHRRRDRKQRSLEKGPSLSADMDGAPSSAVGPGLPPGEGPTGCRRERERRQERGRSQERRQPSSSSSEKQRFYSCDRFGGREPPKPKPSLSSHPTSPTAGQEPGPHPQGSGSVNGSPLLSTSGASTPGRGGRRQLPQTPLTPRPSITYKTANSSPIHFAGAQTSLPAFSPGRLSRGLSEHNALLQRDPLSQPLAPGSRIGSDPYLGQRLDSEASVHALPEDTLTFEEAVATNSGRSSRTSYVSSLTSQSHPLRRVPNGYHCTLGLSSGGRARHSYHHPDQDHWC
T1 sequence (P54284 whole entry partner): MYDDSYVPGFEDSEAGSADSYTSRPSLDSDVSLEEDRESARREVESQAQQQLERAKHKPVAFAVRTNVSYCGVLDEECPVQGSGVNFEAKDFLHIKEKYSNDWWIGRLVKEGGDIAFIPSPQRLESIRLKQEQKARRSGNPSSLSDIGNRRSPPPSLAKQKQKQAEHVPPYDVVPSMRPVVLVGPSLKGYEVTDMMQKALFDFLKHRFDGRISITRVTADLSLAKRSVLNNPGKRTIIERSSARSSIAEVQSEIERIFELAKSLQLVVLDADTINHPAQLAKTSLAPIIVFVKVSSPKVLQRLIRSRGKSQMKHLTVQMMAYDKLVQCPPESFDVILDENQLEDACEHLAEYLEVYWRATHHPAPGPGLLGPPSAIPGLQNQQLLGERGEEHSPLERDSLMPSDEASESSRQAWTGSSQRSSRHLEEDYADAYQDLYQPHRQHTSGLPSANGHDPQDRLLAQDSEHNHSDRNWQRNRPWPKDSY
T1 sequence (P54289 25-946 partner limits assumed): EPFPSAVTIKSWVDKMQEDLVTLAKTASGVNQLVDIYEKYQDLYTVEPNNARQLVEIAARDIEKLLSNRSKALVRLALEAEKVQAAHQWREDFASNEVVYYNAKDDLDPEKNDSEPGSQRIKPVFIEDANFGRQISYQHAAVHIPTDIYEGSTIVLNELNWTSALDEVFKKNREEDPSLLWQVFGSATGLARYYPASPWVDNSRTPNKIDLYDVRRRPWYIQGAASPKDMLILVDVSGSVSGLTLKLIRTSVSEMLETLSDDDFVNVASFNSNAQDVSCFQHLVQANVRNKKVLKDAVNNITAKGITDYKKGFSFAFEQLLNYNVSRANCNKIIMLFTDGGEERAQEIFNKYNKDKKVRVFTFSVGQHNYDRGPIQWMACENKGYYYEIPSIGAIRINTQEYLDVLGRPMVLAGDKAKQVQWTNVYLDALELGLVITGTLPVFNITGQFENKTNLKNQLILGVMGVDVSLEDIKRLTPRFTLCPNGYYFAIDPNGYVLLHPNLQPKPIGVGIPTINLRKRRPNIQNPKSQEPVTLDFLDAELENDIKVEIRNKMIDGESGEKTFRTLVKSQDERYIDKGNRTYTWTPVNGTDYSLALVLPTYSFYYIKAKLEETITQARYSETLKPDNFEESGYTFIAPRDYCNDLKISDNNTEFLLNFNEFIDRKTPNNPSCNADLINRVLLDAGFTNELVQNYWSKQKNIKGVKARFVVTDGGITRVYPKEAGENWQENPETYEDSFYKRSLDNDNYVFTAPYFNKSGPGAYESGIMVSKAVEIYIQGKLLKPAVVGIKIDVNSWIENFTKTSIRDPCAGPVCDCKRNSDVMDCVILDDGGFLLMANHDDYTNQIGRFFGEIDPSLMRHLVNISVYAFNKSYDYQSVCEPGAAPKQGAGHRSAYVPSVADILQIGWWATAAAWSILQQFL
T1 sequence (P54289 947-1103 partner limits assumed): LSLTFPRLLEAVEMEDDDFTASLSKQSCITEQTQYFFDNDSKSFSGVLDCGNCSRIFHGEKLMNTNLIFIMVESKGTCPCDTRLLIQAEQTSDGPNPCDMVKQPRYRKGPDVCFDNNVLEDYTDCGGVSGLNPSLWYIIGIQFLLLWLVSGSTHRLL

For orientation: IC50 means the point on the concentration scale where inhibition reaches its midpoint. Turning to `CC(C)C[C@@H](C(=O)N[C@@H](Cc1ccc(OCc2ccccc2)cc1)C(=O)NCCN1CCCCC1)N(C)C1CCCCC1` (relative stereo) [Example 21, [S-(R*,R*)]-2-(Cyclohexyl-methyl-amino)4-methyl-pentanoic acid [2-(4-benzyloxy-phenyl)-1-(2-piperidin-1-yl-ethylcarbamoyl)-ethyl]-amide], the half-maximal inhibitory concentration (IC50) under setting [1] worked out at 0.88 µM.

Consider `CC(C)C[C@@H](C(=O)N[C@@H](Cc1ccc(OCc2ccccc2)cc1)C(=O)N1CCN(Cc2ccccc2)CC1)N(C)C1CCCCC1` (relative stereo) [Example 22, [S-(R*,R*)]-2-(Cyclohexyl-methyl-amino)-4-methyl-pentanoic acid [1-(4-benzyloxy-benzyl)-2-(4-benzyl-piperazin-1-yl)-2-oxo-ethyl]-amide], for which, under setting [2], the “IMR 32 % of Blockade @ 1 μM” value is given as 57% and the “IMR 32 % of Blockade @ 10 μM” value is given as 87%. With `CC(C)C[C@@H](C(=O)N[C@@H](Cc1ccc(OCc2ccccc2)cc1)C(=O)NC1CCN(Cc2ccccc2)CC1)N(C)C1CCCCC1` (relative stereo) [Example 23, [S-(R*,R*)]-2-(Cyclohexyl-methyl-amino)-4-methyl-pentanoic acid [2-(4-benzyloxy-phenyl)-1-(1-benzyl-piperidin-4-ylcarbamoyl)-ethyl]-amide], the “IMR 32 % of Blockade @ 1 μM” value under setting [2] worked out at 53%. The “IMR 32 % of Blockade @ 3 μM” value (3 μM, IMR-32 cells, 5 μM nitrendipine) stood at 80%. In the case of `CC(C)C[C@@H](C(=O)N[C@@H](Cc1ccc(OCc2ccccc2)cc1)C(=O)N1CCN(C)CC1)N(C)C1CCCCC1` (relative stereo) [Example 24, [S-(R*,R*)]-2-(Cyclohexyl-methyl-amino)4-methyl-pentanoic acid [1-(4-benzyloxy-benzyl)-2-(4-methyl-piperazin-1-yl)-2-oxo-ethyl]-amide], under setting [2], the “IMR 32 % of Blockade @ 1 μM” value worked out at 32% and the “IMR 32 % of Blockade @ 10 μM” value is given as 84%. Regarding `CC(C)C[C@@H](C(=O)N[C@@H](Cc1ccc(OCc2ccccc2)cc1)C(=O)N1CCCCC1)N(C)CC1CCCCC1` (relative stereo) [Example 26, [S-(R*,R*)]-2-(Cyclohexylmethyl-methyl-amino)-4-methyl-pentanoic acid [^2-(^4-benzyloxy-phenyl)-1-(piperidine-1-carbonyl)-ethyl]-amide], the IC50 under setting [1] is 0.6 µM. On the same count and under the same terms, the result for `CC(C)C[C@@H](C(=O)N[C@@H](Cc1ccc(OCc2ccccc2)cc1)C(=O)NCCN1CCCCC1)N(C)CC1CCCCC1` (relative stereo) [Example 27, [S-(R*,R*)]-2-(Cyclohexylmethyl-methyl-amino)-4-methyl-pentanoic acid [2-(4-benzyloxy-phenyl)-1-(2-piperidin-1-yl-ethylcarbamoyl)-ethyl]-amide] reads 1.3 µM; that for `CC(C)C[C@@H](C(=O)N[C@@H](Cc1ccc(OCc2ccccc2)cc1)C(=O)N1CCN(Cc2ccccc2)CC1)N(C)CC1CCCCC1` (relative stereo) [Example 28, [S-(R*,R*)]-2-(Cyclohexylmethyl-methyl-amino)-4-methyl-pentanoic acid [1-(4-benzyloxy-benzyl)-2-(4-benzyl-piperazin-1-yl)-2-oxo-ethyl]-amide], 0.5 µM. On to `CC(C)C[C@@H](C(=O)N[C@@H](Cc1ccc(OCc2ccccc2)cc1)C(=O)NC1CCN(Cc2ccccc2)CC1)N(C)CC1CCCCC1` (relative stereo) [Example 29, [S-(R*,R*)]-2-(Cyclohexylmethyl-methyl-amino)-4-methyl-pentanoic acid [2-(4-benzyloxy-phenyl)-1-(1-benzyl-piperidin-4-ylcarbamoyl)-ethyl]-amide], for which, under setting [1], the half-inhibitory concentration (IC50) came to 0.6 µM. In the case of `CC(C)C[C@H](NCc1ccc(C(C)(C)C)cc1)C(=O)N[C@@H](Cc1ccc(OCc2ccccc2)cc1)C(=O)OC(C)(C)C` (relative stereo) [Example 32, [S-(R*,R*)]-3-(4-Benzyloxy-phenyl)-2-[2-(4-tert-butyl-benzylamino)-4-methyl-pentanoylamino]-propionic acid tert-butyl ester], the IC50 under setting [1] worked out at 0.25 µM. Take `CC(C)C[C@H](NCc1ccccc1)C(=O)N[C@@H](Cc1ccc(OCc2ccccc2)cc1)C(=O)OC(C)(C)C` (relative stereo) [Example 33, [S-(R*,R*)]-2-(2-Benzylamino-4-methyl-pentanoylamino)-3-(4-benzyloxy-phenyl)-propionic acid tert-butyl ester]: under setting [2], the “IMR 32 % of Blockade @ 1 μM” value is on record as 52% and the “IMR 32 % of Blockade @ 10 μM” value worked out at 95%. For the compound `CN[C@@H](CC(C)C)C(=O)N[C@@H](Cc1ccc(OCc2ccccc2)cc1)C(=O)NC(C)(C)C` (relative stereo) [Example 35, [S-(R*,R*)]-4-Methyl-2-methylamino-pentanoic acid [2-(4-benzyloxy-phenyl)-1-tert-butylcarbamoyl-ethyl]-amide], the half-maximal inhibitory concentration (IC50) under setting [1] stood at 2.3 µM.

For the compound `CC(C)C[C@@H](C(=O)N[C@@H](Cc1ccc(OCc2ccccc2)cc1)C(=O)NC(C)(C)C)N(C)CCC(C)(C)C` (relative stereo) [Example 36, [S-(R*,R*)]-2-[(3,3-Dimethyl-butyl)-methyl-amino]-4-methyl-pentanoic acid [2-(4-benzyloxy-phenyl)-1-tert-butylcarbamoyl-ethyl]-amide], under setting [1], the IC50 came out at 0.4 µM. As for `CC(C)C[C@@H](C(=O)N[C@@H](Cc1ccc(OCc2ccccc2)cc1)C(=O)NC(C)(C)C)N(C)C1CCC(C(C)(C)C)CC1` (relative stereo) [Example 38, [S-(R*,R*)]-2-[(4-tert-Butyl-cyclohexyl)-methyl-amino]-4-methyl-pentanoic acid [2-(4-benzyloxy-phenyl)-1-tert-butylcarbamoyl-ethyl]-amide], the “IMR 32 % of Blockade @ 1 μM” value under setting [2] is on record as 23%. Consider `CC(C)C[C@@H](C(=O)N[C@@H](Cc1ccc(OCc2ccccc2)cc1)C(=O)NC(C)(C)C)N(C)C1CCC(C)CC1` (relative stereo) [Example 39, [S-(R*,R*)]-4-Methyl-2-[methyl-(4-methyl-cyclohexyl)-amino]-pentanoic acid [2-(4-benzyloxy-phenyl)-1-tert-butylcarbamoyl-ethyl]-amide], for which the IC50 under setting [1] is 0.39 µM. Consider `CC(C)C[C@@H](C(=O)N[C@@H](Cc1ccc(OCc2ccccc2)cc1)C(=O)NC(C)(C)C)N(C)Cc1ccc(N(C)C)cc1` (relative stereo) [Example 40, [S-(R*,R*)]-2-[(4-Dimethylamino-benzyl)-methyl-amino]-4-methyl-pentanoic acid [2-(4-benzyloxy-phenyl)-1-tert-butylcarbamoyl-ethyl]-amide], for which the half-maximal inhibitory concentration (IC50) amounted to 0.28 µM. On to `CCCCN(C)[C@@H](CC(C)C)C(=O)N[C@@H](Cc1ccc(OCc2ccccc2)cc1)C(=O)NC(C)(C)C` (relative stereo) [Example 41, [S-(R*,R*)]-2-(Butyl-methyl-amino)-4-methyl-pentanoic acid [2-(4-benzyloxy-phenyl)-1-tert-butylcarbamoyl-ethyl]-amide], for which the half-maximal inhibitory concentration (IC50) under setting [1] stood at 0.28 µM. The same measure, in the same setting: the same measure for `CC(C)C[C@@H](C(=O)N[C@@H](Cc1ccc(OCc2ccccc2)cc1)C(=O)NC(C)(C)C)N(C)CC(C)C` (relative stereo) [Example 42, [S-(R*,R*)]-2-(Isobutyl-methyl-amino)-4-methyl-pentanoic acid [2-(4-benzyloxy-phenyl)-1-tert-butylcarbamoyl-ethyl]-amide]: 0.38 µM.
